This is an account of results in ChEMBL document CHEMBL3507680, “University of Dundee, Gates Library screen for HepG2 cell viability”.

The series in a line: Human HepG2 cell viability assay in 384 well format. Type of series: toxicity, cell-based. More on the design: dose 125 nL, time 70.5 hour; concentration not given beside the values. To be noted: HepG2 cells, read-out: Inhibition.
Consider `CCCc1noc(CCC(=O)N2CCCC2c2ccncc2)n1` (stereo unspecified), for which the cytotoxicity at 70.5 h was -5.95%.

In the case of `COc1ccc(CN2CC[C@@H]3[C@H]2CCC(=O)N3c2cnn(C)c2)cc1`, the cytotoxicity at 70.5 h turned out to be 5.08%. Turning to `O=C(CN1C(=O)CCCc2sccc21)NC1CCc2nccn2C1` (stereo unspecified), the cytotoxicity at 70.5 h is -1.68%. Regarding `CC(=O)Nc1ccc(Oc2cccc(CN3CCCC3)c2)cc1`, the cytotoxicity at 70.5 h is -1.93%. For `CNc1cc(C)nc(NC2CCCN(C3Cc4ccccc4C3)C2)n1` (stereo unspecified), the cytotoxicity at 70.5 h was 28.6%. As to `Cc1ccc(N2CCCN(C(=O)C(C(C)C)n3cncn3)CC2)nn1` (stereo unspecified), the cytotoxicity at 70.5 h was found to be 1.73%.

On to `COC(=O)c1cc(NC(=O)NCC2CCS(=O)(=O)C2)ccc1Cl` (stereo unspecified), for which the cytotoxicity at 70.5 h was -0.58%.

On to `CCC(O)CN1CCN(C(=O)c2sccc2C(C)C)CC1` (stereo unspecified), for which the cytotoxicity at 70.5 h was -7.94%.

For `N#Cc1ccc(CNC(=O)NC2CCCN(c3ncccn3)C2)cc1` (stereo unspecified), the cytotoxicity at 70.5 h is -9.27%. `CCOCC(=O)N1CCCC2(CCN(c3ccccc3)C2=O)C1` (stereo unspecified): the cytotoxicity at 70.5 h is -8.08%.

On to `CC(C)OCCCN(CC(=O)N1CCNCC1)C(=O)c1cccc(Cl)c1`, for which the cytotoxicity at 70.5 h is -18.5%.

On to `CC(C)CN1C(=O)CO[C@@H]2CN(C(=O)N(C)C)C[C@H]21`, for which the cytotoxicity at 70.5 h turned out to be 2.11%. On to `Cc1cc2nc(CO[C@H]3CN(CC4CC4)C[C@H]3F)[nH]c2cc1C`, for which the cytotoxicity at 70.5 h was -2.67%. Take `O=C1CC(c2ccc(O)cc2)c2c(c(C(=O)O)cn2-c2ccccc2)N1` (stereo unspecified): the cytotoxicity at 70.5 h is -10.6%. For `COCCN1C(=O)[C@H]2CC[C@@H]1CN(C(=O)Cc1c(F)cccc1Cl)C2`, the cytotoxicity at 70.5 h was -8.61%. In the case of `Nc1cc(-c2cccs2)nn(CC(=O)N2CCc3ccccc32)c1=O`, the cytotoxicity at 70.5 h is -2.52%.

Take `CN1CC2(CCN(C(=O)Cc3ccc(O)c(F)c3)CC2)CC1=O`: the cytotoxicity at 70.5 h turned out to be 10.1%. Turning to `CSc1nccc(N2CCN(C)C3(CCC(=O)N(CC4CC4)CC3)C2)n1` (stereo unspecified), the cytotoxicity at 70.5 h worked out at 1.61%. In the case of `CCCn1cnnc1CNCc1c[nH]nc1-c1ccc(F)cc1`, the cytotoxicity at 70.5 h was -1.41%. For the compound `O=c1c(S(=O)(=O)N2CCCCC2)cccn1Cc1ccccc1Cl`, the cytotoxicity at 70.5 h is -1.51%. The result for `COC(=O)c1ccc(N2CCN(C(=O)CCCc3cn[nH]c3)CC2)cc1` reads -2.65%; that for `CCOCCOC(C)C(=O)NCc1cn2cc(Br)ccc2n1` (stereo unspecified), -1.73%.

For the compound `CCn1nc(C)c(NC(=O)CN(C)C(C)c2nccs2)c1C` (stereo unspecified), the cytotoxicity at 70.5 h was -6.95%.

Consider `CC(C(=O)N1CCN(Cc2ccc(C#N)cc2)CC1)n1ccnc1` (stereo unspecified), for which the cytotoxicity at 70.5 h is -0.223%. To `OC1CCN(CCCn2ccnc2-c2c[nH]cn2)CC1` belongs -5.95%; to `Cc1nn2c(N3CCC(C(N)=O)CC3)cc(-c3ccccc3)nc2c1C`, -2.04%. Consider `COc1ccccc1C(=O)N1CCCC1c1ncc2c(n1)CCNC2` (stereo unspecified), for which the cytotoxicity at 70.5 h is -2.07%.

As to `Cc1nnc(SCCCNC(=O)c2ccc3c(c2)OCO3)s1`, the cytotoxicity at 70.5 h is -9.91%.

With `O=C(CC1CCCCC1)NC1CCCCNC1=O` (stereo unspecified), the cytotoxicity at 70.5 h is -9.32%. For the compound `Cc1oncc1C(=O)NCc1ccnc(OCC(F)(F)F)c1`, the cytotoxicity at 70.5 h was 11%. For `CC(C)Cn1c(=O)nc2n1C(=O)N(c1ccc(F)cc1)C2`, the cytotoxicity at 70.5 h is -25.8%. Take `N#Cc1nccnc1NC1CCN(c2ccccc2OC(F)F)C1` (stereo unspecified): the cytotoxicity at 70.5 h was -5.2%. Take `COC(=O)CC(c1cccc(OC(F)F)c1)c1oc(C)cc(=O)c1O` (stereo unspecified): the cytotoxicity at 70.5 h came to 7.18%. Regarding `N#Cc1cccc(OCCN2CCC(C(=O)N3CCOCC3)CC2)c1`, the cytotoxicity at 70.5 h is -11.2%. As for `CCn1nc2c(cc1=O)CN(c1nc3ccccc3s1)CC2`, the cytotoxicity at 70.5 h came to 16.9%. Take `Cc1nc(CN2CCCC(NCc3nc4ccccc4s3)C2)no1` (stereo unspecified): the cytotoxicity at 70.5 h was -17.4%. With `Cc1cc(NCC2CCCO2)cc(=O)n1C` (stereo unspecified), the cytotoxicity at 70.5 h was -9.63%. With `Oc1c(F)cc(CNc2cccc(-c3nnc[nH]3)c2)cc1F`, the cytotoxicity at 70.5 h was -9.32%.

For the compound `CC(C)Cc1nc(CN(C)CCOc2ccc(F)cc2)no1`, the cytotoxicity at 70.5 h was -8.43%.

`FC(F)(F)C1CCc2nnc(CNCc3cccs3)n2C1` (stereo unspecified): the cytotoxicity at 70.5 h was found to be 24.7%. The result for `O=C(NCCOc1ncc(Cl)cc1Cl)c1ccncc1F` reads 0.0766%. In the case of `CSc1[nH]c(=O)c(C(=O)N2CCCC2c2cccs2)cc1C#N` (stereo unspecified), the cytotoxicity at 70.5 h is -2.03%. The result for `CCc1nccn1C1CCCN(C(=O)c2cnn3ccc(C)nc23)C1` (stereo unspecified) reads -9.27%.

As to `CN(C)C(CNC(=O)OCC(F)(F)F)c1ccsc1` (stereo unspecified), the cytotoxicity at 70.5 h is -8.54%.

Consider `C[C@@H]1CN(C(=O)CCc2cnn(C)c2)CC[C@@]1(O)C1CCOCC1`, for which the cytotoxicity at 70.5 h stood at 8.15%. The result for `Cc1cccc2c1nc1n2[C@@H](CNC(=O)Cc2ccccc2)COC1` reads -1.08%; that for `Cc1nc(CN2CCC3(C2)CN(C(=O)c2ccc[nH]2)C3)cs1`, -5.84%; that for `COC(=O)N1CCCC(C(=O)N2CCCCC2)C1` (stereo unspecified), -4.53%.

As for `COc1ccc(NC(C)c2nnnn2-c2ccccc2)cc1F` (stereo unspecified), the cytotoxicity at 70.5 h was -95.4%. For `Cc1ccc(-c2nc(CN3CCN(CCO)CC3)co2)cc1`, the cytotoxicity at 70.5 h was -9.54%. Take `c1cc(CN2C[C@@H]3OCCN(CCN4CCCC4)[C@@H]3C2)ccn1`: the cytotoxicity at 70.5 h is -8.99%.

As for `COc1cccc(-n2cc(CN(C)C(=O)c3cnc(O)cn3)cn2)c1`, the cytotoxicity at 70.5 h is -9%. On to `Cc1cccc(NCC(=O)Nc2cc(F)ccc2F)c1C(N)=O`, for which the cytotoxicity at 70.5 h was -8.06%. The result for `Cc1ccnc(NCc2ccccc2N2CCOCC2)n1` reads -16.7%; that for `CCc1ccc(C(=O)N(CC(F)(F)F)C2CCCOC2)o1` (stereo unspecified), -6.93%; that for `CC1(C)CN(CC(F)(F)F)CCN1CC(=O)NC1CCCC1`, -4.28%.

As to `COc1ccc(Br)c(C(=O)N2CCC(c3n[nH]c(C4CC4)n3)CC2)c1`, the cytotoxicity at 70.5 h stood at 3.76%. To `CN(Cc1ccco1)C[C@H]1OC[C@@H]2CCN(Cc3cccs3)C[C@@H]21` belongs -13.4%.

With `CCNC(=O)c1ccnc(N2CCCC(COc3ccccc3C)C2)c1` (stereo unspecified), the cytotoxicity at 70.5 h was -21.9%.

As for `CC(C)CN(CC(O)c1ccccc1)C(=O)Nc1nccs1` (stereo unspecified), the cytotoxicity at 70.5 h is -6.61%. For the compound `Cn1ccc(C(=O)Nc2nc(-c3ccc(Cl)cc3)n[nH]2)cc1=O`, the cytotoxicity at 70.5 h came out at 24.6%. The result for `CNCCNc1ccc(-c2nc(-c3cccc(OC)c3OC)no2)cn1` reads -2.42%; that for `Cn1nc(C2CC2)c2c1NC(=O)CC2c1cc(CN2CCCC2)cs1` (stereo unspecified), -8.83%. To `CN1CCCN(C(=O)c2nc3c(s2)CCCN3CC2CC2)CC1` belongs -1.89%; to `CSCCC(=O)N1CC[C@@H](N2CCN(c3ccccc3F)CC2)[C@H](O)C1`, 33.8%; to `O=C(NC1CCN(CC2CC2)C1)N1CCC(OC2CCCCC2)CC1` (stereo unspecified), 14.5%. With `Cc1csc2c(N3CCNC(C(=O)NCc4cccnc4)C3)ncnc12` (stereo unspecified), the cytotoxicity at 70.5 h was 18.9%.

For `CCc1ccsc1C(=O)NCCn1nc2ccccn2c1=O`, the cytotoxicity at 70.5 h was -5.41%. For the compound `CC(=O)NCCCNCc1c(C)nn(CC(C)C)c1N(C)C`, the cytotoxicity at 70.5 h is -5.4%. To `CNC(=O)c1cc(C)nc(C2(C)CCCN2c2cc(C)ncn2)n1` (stereo unspecified) belongs -6.05%; to `Cc1ccccc1C1(CNCc2cnc(N3CCOCC3)nc2)CC1`, 5.8%.
